Structures can show the parent of a compound that is named as a salt. Where two headings read alike, the source gives them in different places.
Key:
[1] = test system: human epidermoid carcinoma A431 cells, which have high expression of EGFR; assay: EGFR cell proliferation inhibition assay (SRB, 72 hours); type: cell-based; conditions: A431 cells, 72 hours, SRB, read-out: IC50 (EGFR/A431)
Procedure: The activity is represented by the IC50 value. The general procedures of the assay were as follows: the cancer cells A431 highly expressing EGFR were chosen and seeded in a 96-well cell culture plate at a suitable density (e.g., 5000 cells/mL medium). The cells were then incubated in a carbon dioxide incubator until they reached 85% confluence. Then, the cell culture medium was replaced by fresh medium containing the test compounds with serial dilutions (general 6 to 7 concentrations). The cells were put back in the incubator and cultured continuously for 72 hours. The activity of the test compounds for inhibiting the cell proliferation was determined by using a Sulforhodamine B (SRB) method. IC50 values were calculated by the rate of inhibition at various concentrations of the test compounds.

[2] = test system: human carcinoma SK-BR-3 cells, which have high expression of HER-2; assay: HER-2 cell activity assay (SRB, 96 hours); type: cell-based; conditions: read-out: IC50 (HER-2/SK-BR-3)
From the text: The following in vitro assay was to determine the activity of the compounds of the present invention for inhibiting the proliferation of human carcinoma SK-BR-3 cells, which have high expression of HER-2.
The following in vitro assay was to determine the activity of the test compounds for inhibiting the angiogenesis and proliferation of cancer cells, which have high expression of HER-2. The activity is represented by the IC50 value. The general procedure of the assay was as follows: the cancer cells line SK-BR-3 highly expressing HER-2 was chosen and the cells were seeded in a 96-well cell culture plate at a suitable density. The cells then were incubated in a carbon dioxide incubator until they reached 60% confluence. Then, the cell culture medium was replaced by fresh medium with the test compounds at various concentrations (6 to 7 concentrations). The cells were put back in the incubator and cultured continuously for 96 hours. The activity of the test compounds for inhibiting the cell proliferation was determined by using a Sulforhodamine B (SRB) method. IC50 values of test cells were calculated by the rate of inhibition at various concentrations of the test compounds.

HER-2 kinase = HER-2 kinase (Homo sapiens, UniProt P04626); assay: HER-2 kinase activity assay (time-resolved fluorescence); type: biochemical; conditions: table of the HER-2 kinase activity assay; human-derived recombinant HER-2 kinase, 20 μM ATP, 25° C., 45 minutes; read-out: IC50 (HER-2/SK-BR-3)
Procedure: The in vitro HER-2 kinase activity was tested by the following assay.
The following assay was used to determine the activity of the compounds of the present invention for inhibiting HER-2 kinase. The half maximal inhibitory concentration IC50 (the concentration of the test compound showing 50% inhibition of the enzyme activity) of each compound was determined by incubating several different concentrations of the test compounds with a specific enzyme and substrate. […] The HER-2 kinase activity was determined by using a time-resolved fluorescence method.

Solubility assay [3] = type: physicochemical
Procedure: According to the conventional solubility measurement, the solubility of a compound of formula (I) and salts thereof was determined in three different systems: water, physiological saline and methanol.

[4] = Pharmacokinetics assay in rats (LC/MS/MS of plasma); type: in vivo, Sprague Dawley (SD) rats; conditions: both sexes, Sprague-Dawley, rat, plasma, 25 mg/kg; for AUC(0-t): read-out: AUC0-t; for MRT: read-out: MRT; for Cmax: read-out: Cmax; for Vd/F: read-out: Vz/F; for bioavailability: oral absolute bioavailability, 25 mg/kg (calculated by the base part)
Procedure: The rats were used as test animals. The compound of formula (I) and other salts thereof were administrated intragastrically, and a maleate salt of the compound of formula (I) was injected into the tail vein to determine the drug concentration in plasma at different time points by an LC/MS/MS method. The pharmacokinetic behavior, characteristics and the oral absolute bioavailability of the present compounds were studied and evaluated in rats. […] 28 healthy adult Sprague Dawley (SD) rats, half male and half female, were purchased from SINO-BRITSH SIPPR/BK LAB. ANIMAL LTD., CO, License number: SCXK (Shanghai) 2008-0016, and divided into 7 groups (4 rats in each group). The intravenous injection group: a suitable amount of compounds was weighed, dissolved in DMSO and diluted with normal saline to the final volume. […] healthy adult SD rats, half male and half female, were divided into 7 groups (4 rats in each group). […] For the intravenous injection group, blood samples (0.2 mL) were taken from orbital sinus before administration and at 2 min, 15 min, 30 min, 1.0 […] and 36.0 h after administration, stored in heparinized tubes and centrifuged for 10 minutes at 3,500 rpm to separate blood plasma. The plasma samples were stored at -20° C. For the intragastrical administration group, blood samples were taken before administration and at 0.5, 1.0, 2.0, 3.0, 4.0, 6.0, 8.0, 12.0, 24.0 and 36.0 hours after administration. The method to treat the samples was the same as with the intravenous injection group. The rats were fed 2 hours after administration.

Solubility assay [5] = type: physicochemical; remark: listed apart in the source

Chain of HER-2 kinase (P04626 23-1255): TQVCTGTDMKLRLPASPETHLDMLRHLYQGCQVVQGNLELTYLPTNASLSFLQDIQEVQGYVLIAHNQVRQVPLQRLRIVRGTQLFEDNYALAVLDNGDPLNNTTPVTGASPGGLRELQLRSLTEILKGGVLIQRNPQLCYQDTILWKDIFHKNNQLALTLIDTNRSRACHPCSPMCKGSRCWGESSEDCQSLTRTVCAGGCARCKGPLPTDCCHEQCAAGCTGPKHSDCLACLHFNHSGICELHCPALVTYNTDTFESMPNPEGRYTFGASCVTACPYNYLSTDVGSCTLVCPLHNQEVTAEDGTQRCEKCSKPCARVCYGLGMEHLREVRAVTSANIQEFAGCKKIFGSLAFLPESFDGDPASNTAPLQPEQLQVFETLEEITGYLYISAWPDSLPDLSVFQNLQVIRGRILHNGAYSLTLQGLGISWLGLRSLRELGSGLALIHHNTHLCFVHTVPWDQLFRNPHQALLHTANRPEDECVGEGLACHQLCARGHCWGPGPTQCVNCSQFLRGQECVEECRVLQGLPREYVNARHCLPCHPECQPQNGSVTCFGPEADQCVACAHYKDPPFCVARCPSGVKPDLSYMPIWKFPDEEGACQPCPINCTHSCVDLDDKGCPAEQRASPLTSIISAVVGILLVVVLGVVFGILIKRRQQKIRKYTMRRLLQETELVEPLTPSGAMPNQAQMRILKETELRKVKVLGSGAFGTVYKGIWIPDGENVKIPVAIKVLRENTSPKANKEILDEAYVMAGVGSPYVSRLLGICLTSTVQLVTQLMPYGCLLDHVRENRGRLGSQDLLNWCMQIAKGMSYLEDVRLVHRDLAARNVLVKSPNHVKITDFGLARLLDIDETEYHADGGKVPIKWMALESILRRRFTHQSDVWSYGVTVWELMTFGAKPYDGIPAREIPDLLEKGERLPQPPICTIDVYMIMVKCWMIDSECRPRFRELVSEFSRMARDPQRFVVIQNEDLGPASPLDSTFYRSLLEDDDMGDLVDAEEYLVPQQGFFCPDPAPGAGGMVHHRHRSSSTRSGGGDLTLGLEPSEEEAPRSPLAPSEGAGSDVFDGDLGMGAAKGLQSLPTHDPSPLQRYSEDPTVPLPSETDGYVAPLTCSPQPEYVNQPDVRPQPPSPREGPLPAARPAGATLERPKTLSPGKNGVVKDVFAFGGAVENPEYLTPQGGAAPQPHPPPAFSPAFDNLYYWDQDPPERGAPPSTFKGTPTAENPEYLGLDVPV

SMILES | IC50 (HER-2 kinase) | half-life ([4]; iv, vein (tail vein injection)) | AUC(0-t) ([4]; iv, vein (tail vein injection)) | MRT ([4]; iv, vein (tail vein injection)) | CL/F ([4]; po, gavage) | half-life ([4]; po, gavage) | AUC(0-t) ([4]; po, gavage) | Cmax ([4]; po, gavage) | MRT ([4]; po, gavage) | Vd/F ([4]; po, gavage) | bioavailability ([4]; po) | also measured
CCOc1cc2ncc(C#N)c(Nc3ccc(OCc4ccccn4)c(Cl)c3)c2cc1NC(=O)/C=C/[C@H]1CCCN1C [Example 9, (E)-N-[4-[[3-chloro-4-(2-pyridylmethoxy)phenyl]amino]-3-cyano-7-ethoxy-6-quinolyl]-3-[(2R)-1-methylpyrrolidin-2-yl]prop-2-enamide dihydrochloride] | 46 nM | 4.75 ± 0.32 h | 115000 ± 33100 ng·h/mL | 5.54 ± 0.58 h | 6.67 mL/min/kg | 3.47 ± 0.18 h | 66100 ± 17200 ng·h/mL | 5870 ± 1610 ng/mL | 7.96 ± 0.7 h | 1.99 ± 0.49 L/kg | 57.6% | IC50 ([1]; dihydrochloride): 49 nM; IC50 ([2]; dihydrochloride): 69 nM; Solubility Value, Physiological saline (Solubility assay [3]; physiological saline, dihydrochloride): 0.2 mg/mL; Solubility Value, Water (Solubility assay [3]; water, dihydrochloride): 150 µg/mL; Solubility Value, 0.1M Hydrochloric acid (Solubility assay [5]; 0.1M hydrochloric acid, dihydrochloride): 16590 µg/mL
CCOc1cc2ncc(C#N)c(Nc3ccc(OCc4ccccn4)c(Cl)c3)c2cc1NC(=O)/C=C/[C@H]1CCCN1C.Cc1ccc(S(=O)(=O)O)cc1 [Example 7, (E)-N-[4-[[3-chloro-4-(2-pyridylmethoxy)phenyl]amino]-3-cyano-7-ethoxy-6-quinolyl]-3-[(2R)-1-methylpyrrolidin-2-yl]prop-2-enamide p-toluenesulfonate] | 64 nM | 3.12 ± 0.37 h | 113000 ± 62100 ng·h/mL | 4.2 ± 0.99 h | 10.5 mL/min/kg | 3.52 ± 0.69 h | 44300 ± 16000 ng·h/mL | 5160 ± 1640 ng/mL | 7.9 ± 0.74 h | 3.23 ± 1.65 L/kg | 39.2% | IC50 ([1]; p-toluenesulfonate): 38 nM; IC50 ([2]; p-toluenesulfonate): 45 nM; solubility (Solubility assay [3]; physiological saline, saline or isotonic, physiological saline, read-out: Solubility Value, Physiological saline): 100 µg/mL; solubility (Solubility assay [3]; water, read-out: Solubility Value, Water): 5390 µg/mL; solubility (Solubility assay [5]; 0.1 M hydrochloric acid, simulated gastric fluid): 31900 µg/mL
